The target in assay [1] is T1, CB1 receptor (Homo sapiens, UniProt P21554). The settings on record: cited from earlier work.
The test system of assay [2] is ovariectomy induced bone loss. Description: Ovariectomy induced bone loss, peripheral quantitative computed tomography. As to conditions: for ovariectomy-induced bone loss in a mouse model: in vivo. The assay is classed as in vivo, C57/BL6 mice.
The subject of assay [3] is J774 murine macrophage cells. As to the kind of experiment: Alamar Blue J774 murine macrophage viability assay. The assay is classed as cell-based. As to conditions: for IC50: Mus musculus; for effect on J774 survival: data not shown. As to the method: J774 cells were plated at 10^4 cells per well in 150 μL αMEM (α Modified Eagle Medium) in 96-well plates and grown overnight. The next day, compounds were added to the cultures, and culture was continued for another 72 hours.
Alamar Blue is an oxidation-reduction sensitive indicator. The dye itself is in the oxidised state, which is blue and non-fluorescent. The dye can accept electrons from reducing species, such as NADPH and FADH, to form a reduced dye species, which is red and fluorescent. Thus the transformation from oxidised form to reduced form can be measured by fluorimetric or colourimetric means. For fluorescence measurements, 530-560 nm excitation and 590 nm emission wavelengths are typically used. For colourimetric measurements, absorbance is measured at 570 nm (reduced form) and 600 nm (oxidised form) and a simple calculation performed to determine the relative quantities of the two species.
A high ratio of the reducing species, NADPH and FADH, to the corresponding oxidised species, NADP and FAD, is an indicator that cells are proliferating and viable. A low ratio indicates cells that are quiescent or non-viable.
Briefly, Alamar Blue (Biosource International) was added undiluted to the each well (1:10 v/v, 15 μL). The plate was incubated at 37° C. for 3-4 hours and the fluorescence was measured at 570 nm, with a 25 nm bandwidth. A high reading indicated cells with normal viability, and a low reading indicates cells that have been damaged and are no longer proliferating normally.
In general, compounds studied were made up as 100 mM solutions in DMSO. These stock solutions were then diluted 100 or 1000× in culture medium (αMEM).
For orientation: The colour change of resazurin is a common sign of viable cells or microbes.

In assay [4] the test system is rabbit osteoclasts. As to the kind of experiment: Rabbit osteoclast culture. The assay is classed as cell-based.
Description: Osteoclast survival and activity was studied in cultures of rabbit osteoclasts. Osteoclasts were isolated from the long bones of 2-3 day-old rabbits as described previously (see, e.g., Coxon et al., 2000), plated on dentine slices and cultured in αMEM supplemented with 10% FCS and penicillin and streptomycin at 37° C. in 5% CO2 for 48 hours in the presence or absence of test compounds.
The target in assay [5] is T1, CB1 receptor. As to conditions: read-out: Ki (nM) CB1, cited from earlier work.
For assay [6], the target named is T2, CB2 receptor (Homo sapiens, UniProt P34972). The settings on record: cited from earlier work; for Classification CB2: Table 1; for CB receptor function (CB2): Table 2.
The target in assay [7] is T2, CB2 receptor.
The subject of assay [8] is mouse osteoblasts. As to the kind of experiment: Mouse osteoblast culture (Alamar Blue). As to conditions: 72 hours, n=3. The assay is classed as cell-based.
Description: Osteoblasts were isolated as described above and plated at 10^4 cells/well in 96-well plates in 100 μL of αMEM supplemented with 10% FCS and antibiotics. Test substances were added after 24 hours and left for 72 hours. Cell viability was assessed using the Alamar Blue assay.
Assay [9] deals with osteoclasts. As to the kind of experiment: cells. It counts as cell-based, mice. As to conditions: Mus musculus, Osteoclast; TRAcP MNC and resorbed area, n=3; read-out: IC50, inhibition of osteoclast function and bone resorption.
Description: Osteoblasts were isolated from the calvarial bones of 2-day-old mice by sequential collagenase digestion (type I collagenase, Sigma) and cultured in αMEM supplemented with 10% FCS and penicillin and streptomycin at 37° C. in 5% CO2. […] The resulting bone marrow cells were washed with PBS and resuspended in culture medium.
Osteoblasts and bone marrow cells were plated at 10^4 cells/well and 2×10^5 cells/well, respectively, in 96-well plates in 150 μL of αMEM supplemented with 10% FCS, antibiotics and 10 nM 1,25-dihydroxyvitamin D3. Test substances were added on day 7 and the cultures were terminated on day 10. At the end of the culture period, osteoclasts were identified by TRAcP staining and resorption pits were quantified by reflected light microscopy, as described above.
The subject of assay [10] is ovariectomy induced bone loss. Description: Ovariectomy induced bone loss, dual energy x-ray absorptiometry. As to conditions: 6 mg/kg, OVX operation, DEXA. The assay is classed as in vivo, C57/BL6 mice. As to the method:
Animals. Female 9 week-old C57/BL6 mice. Animals were housed in a designated animal facility and routinely maintained on a 12 h:12 h light:dark cycle and given ad libitum access to food and water.
Ovariectomy induced bone loss. Bilateral ovariectomy (Ovx) was performed under general anaesthesia. Sham ovariectomy (Sham) was similarly performed but with externalisation and replacement of the ovaries. Animals were given a daily injection of (a) candidate compound (e.g., 6 mg/kg) in vehicle (corn oil), or (b) vehicle (corn oil). After 21 days, the animals were killed, and the tibial bones were dissected and used for bone mineral density measurements and histomorphometric analysis (see below).
Whole body, spine and femoral bone mineral density (BMD) and bone mineral content (BMC) were determined using a Piximus small animal DEXA scanner at the start and the end of the experiment. Daily quality assurance measurements were performed using a phantom according to the manufacturer's instructions.

Setting [11] is: J774, Alamar Blue, 72 hours, n=3, read-out: IC50, J774 survival.
The mark [12] stands for this setting: J774 viability assay, Table 2, read-out: IC50 in J774 cells.
Where [13] appears, read: Table 1; read-out: Ki (nM) CB2; cited from earlier work.

Structures are written as SMILES. “Also recorded” adds a separate entry of the source. Read-outs that look alike come from different tables or passages of the source.

A word on the Ki: it is a dissociation constant, usually derived from enzyme kinetics or from competition with a known ligand. By IC50 is commonly meant the concentration that inhibits the measured activity by half.

T2 sequence (P34972 whole entry): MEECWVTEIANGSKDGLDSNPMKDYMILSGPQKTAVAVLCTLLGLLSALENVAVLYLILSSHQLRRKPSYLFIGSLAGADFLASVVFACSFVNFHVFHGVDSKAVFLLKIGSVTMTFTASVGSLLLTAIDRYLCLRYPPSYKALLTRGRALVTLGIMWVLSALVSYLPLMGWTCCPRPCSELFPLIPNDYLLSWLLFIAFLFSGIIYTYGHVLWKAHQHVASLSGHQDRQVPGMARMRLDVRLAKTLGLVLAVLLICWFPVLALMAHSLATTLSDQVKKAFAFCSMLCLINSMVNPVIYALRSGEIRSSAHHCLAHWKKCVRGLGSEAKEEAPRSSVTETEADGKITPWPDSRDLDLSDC
T1 sequence (P21554 whole entry): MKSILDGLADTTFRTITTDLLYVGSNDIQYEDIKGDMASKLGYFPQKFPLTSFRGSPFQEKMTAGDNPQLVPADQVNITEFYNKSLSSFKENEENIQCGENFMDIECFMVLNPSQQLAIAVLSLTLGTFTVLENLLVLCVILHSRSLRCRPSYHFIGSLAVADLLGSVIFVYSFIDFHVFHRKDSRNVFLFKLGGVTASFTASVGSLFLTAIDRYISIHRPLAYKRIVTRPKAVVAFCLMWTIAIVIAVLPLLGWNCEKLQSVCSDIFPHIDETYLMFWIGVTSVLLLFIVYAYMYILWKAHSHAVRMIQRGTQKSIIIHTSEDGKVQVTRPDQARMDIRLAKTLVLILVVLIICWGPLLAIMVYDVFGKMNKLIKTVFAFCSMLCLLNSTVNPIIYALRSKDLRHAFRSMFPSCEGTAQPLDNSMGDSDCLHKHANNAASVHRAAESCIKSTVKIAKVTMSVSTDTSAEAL

As for `Cc1c(C(=O)NN2CCCCC2)nn(-c2ccc(Cl)cc2Cl)c1-c1ccc(I)cc1` [AM251], in assay [1], the “CB receptor function (CB1)” value is “CB1 inverse agonist” and the “Classification CB1” value is given as “Inverse agonist”. In addition, the “ovariectomy-induced bone loss in a mouse model” value in assay [2] was “completely reverse”. In assay [3], the “J774 viability (summary in words)” value is listed as “inhibit”. The “bone resorption (resorbed area)” value in assay [4] (10 μM (p<0.03) and 20 μM (p<0.01), 48 hours) is listed as “reduced”.

`Cc1c(C(=O)NN2CCOCC2)nn(-c2ccc(Cl)cc2Cl)c1-c1ccc(I)cc1` [AM281]: the “Classification CB1” value in assay [1] (Table 1) is recorded as “Inverse agonist”. The Ki in assay [5] (Table 1) was 12 nM.

For `COc1ccc(C(=O)c2c(C)n(CCN3CCOCC3)c3cc(I)ccc23)cc1` [AM630], the “J774 viability (summary in words)” value in [3] is “inhibit”. The values for the IC50 in assay [3] (setting [11]) and in assay [3] (setting [12]) were approximately 20 µM and 20 µM, respectively. Moreover, the “Classification CB2” value in assay [6] is “Inverse agonist”. In assay [6], the “CB receptor function (CB2)” value is recorded as “CB2 inverse agonist”.

With `CCCCC/C=C\C/C=C\C/C=C\C/C=C\CCCC(=O)NCCO` [Anandamide, arachidonyl ethanolamide], in [3], the “J774 viability (summary in words)” value is “inhibits”. Besides, the IC50 in assay [3] (setting [11]) is approximately 40 µM; in assay [3] (setting [12]), 40 µM. The “effect on J774 survival” value in assay [3] (low concentrations) is on record as “no effect”. Moreover, in assay [6], the “Classification CB2” value is “Partial agonist”. In addition, the “CB receptor function (CB2)” value in assay [6] is “CB2 partial agonist/; also recorded: antagonist”.

As for `CCCCCCC(C)(C)c1ccc([C@@H]2C[C@H](O)CC[C@H]2CCCO)c(O)c1` [CP55940], the “CB receptor function (CB1)” value in assay [1] is listed as “CB1 agonist”. For the same compound, the “J774 viability (summary in words)” value in [3] is on record as “do not affect”. For the same compound, in assay [3] (J774 viability assay, Table 2), the “IC50 in J774 cells” value was “inactive”. The “effect on J774 survival” value in assay [3] (concentrations of up to 100 μM) was “did not affect”. Further, in assay [6], the “CB receptor function (CB2)” value is listed as “CB2 agonist”.

As to `CCCCCc1cc(O)c2c(c1)OC(C)(C)c1ccc(C)cc1-2` [Cannabinol, cannabinol], the results for the Ki in assay [7] (read-out: Ki (nM) CB2; Table 1; cited from earlier work) and in assay [5] were 580 nM and 115 nM, respectively. In [1], the “Classification CB1” value is listed as “Neutral antagonist”. In addition, in assay [6], the “Classification CB2” value is listed as “Inverse agonist”.

Turning to `CCCCCOc1c(OC)ccc2cc(C(=O)NCc3ccc4c(c3)OCO4)c(=O)[nH]c12` [JTE-907, 7-Methoxy-2-oxo-8-pentyloxy-1,2-dihydro-quinoline-3-carboxylic acid (benzo[1,3]dioxol-5-yl-methyl)-amide], in assay [1], the “Classification CB1” value is recorded as “Inactive”. The inhibition constant (Ki) in [5] is 684 nM. The IC50 in assay [3] (setting [11]) is approximately 25 µM. For the same compound, the IC50 in assay [3] (setting [12]) worked out at 25 µM. For the same compound, in assay [8], the osteoblast survival entry is given as “little activity”. In [6], the “Classification CB2” value is recorded as “Inverse agonist” and the “CB receptor function (CB2)” value was “CB2 inverse agonist”.

As to `CCCC(C)(C)c1ccc2c(c1)OC(C)(C)[C@@H]1CC=C(C)C[C@@H]21` [JWH 133], the “J774 viability (summary in words)” value in [3] is recorded as “does not affect”. In addition, the “IC50 in J774 cells” value in assay [3] (J774 viability assay, Table 2) is “inactive”. Besides, the “effect on J774 survival” value in assay [3] (concentrations of up to 20 μM) is “did not affect”. Moreover, in assay [6], the “CB receptor function (CB2)” value is recorded as “CB2-selective agonist”.

Turning to `COc1ccc(-c2oc3cc(OC)ccc3c2C(=O)c2ccc(C#N)cc2)cc1` [LY320135], the “Classification CB1” value in assay [1] (Table 1) is “Inverse agonist”. For the same compound, the “Classification CB2” value in assay [6] was “Inactive”.

For `CC1=CCC2[C@@H](C1)c1c(O)cc(CC#CCCCN=[N+]=[N-])cc1OC2(C)C` (stereo partly drawn) [O1184], the Ki in assay [7] (setting [13]) was 7.4 nM; in assay [5] (Table 1) it was 5.2 nM. Moreover, in assay [1] (Table 1), the “Classification CB1” value is on record as “Partial agonist”. Moreover, in [6], the “Classification CB2” value is on record as “Inverse agonist”.

Regarding `CC1=CCC2[C@@H](C1)c1c(O)cc(C/C=C\CCCN=[N+]=[N-])cc1OC2(C)C` (stereo partly drawn) [O1238], the Ki was 7.8 nM in assay [7] (setting [13]) and 3.5 nM in [5] (Table 1). For the same compound, the “Classification CB1” value in assay [1] (Table 1) is “Partial agonist”. The “Classification CB2” value in assay [6] is “Partial agonist”.

`Cc1c(C(=O)NN2CCCCC2)nn(-c2ccc(Cl)cc2Cl)c1-c1ccc(Cl)cc1` [SR141716A]: the “Classification CB2” value in assay [6] is given as “Inverse agonist”.

Regarding `Cc1ccc(Cn2nc(C(=O)NC3C4(C)CCC(C4)C3(C)C)cc2-c2ccc(Cl)c(C)c2)cc1` [SR144528, 5-(4-Chloro-3-methyl-phenyl)-1-(4-methyl-benzyl)-1H-pyrazole-3-carboxylic acid ((1S)-1,3,3-trimethylbicyclo[2.2.1]hept-2endo,exo-yl)-amide], the “Classification CB1” value in assay [1] is recorded as “Inverse agonist”. The values for the IC50 in assay [9], in [3] (setting [11]) and in assay [3] (setting [12]) were approximately 5 µM, approximately 9 µM and 9 µM, respectively. The “ovariectomy-induced bone loss, trabecular density” value in assay [2] (6 mg/kg daily injection, 21 days, pQCT, tibia) is recorded as “very effective at reversing the bone loss”. Moreover, the “ovariectomy-induced bone loss in a mouse model” value in assay [2] was “completely reverse”. In addition, the osteoblast survival entry in [8] is recorded as “little activity”. Moreover, the “ovariectomy-induced bone loss at the femoral site (femoral bone mineral content and density)” value in assay [10] is recorded as “very effective at reversing the bone loss”. Further, in assay [4], the “survival and resorptive activity of authentic rabbit osteoclasts” value is “inhibit”.

Regarding `Cc1c(C(=O)c2cccc3ccccc23)c2cccc3c2n1[C@H](CN1CCOCC1)CO3` [WIN55212], the “J774 viability (summary in words)” value in assay [3] is “do not affect”. Besides, in assay [3] (J774 viability assay, Table 2), the “IC50 in J774 cells” value was “inactive”. For the same compound, the “effect on J774 survival” value in assay [3] (concentrations of up to 100 μM) is on record as “did not affect”. Moreover, the “CB receptor function (CB2)” value in assay [6] is “CB2 agonist”.

As for `Cc1ccc(Cn2nc(C(=O)NCc3ccc4c(c3)OCO4)cc2-c2ccc(Cl)c(C)c2)cc1` [benzodioxo, 5-(4-Chloro-3-methyl-phenyl)-1-(4-methyl-benzyl)-1H-pyrazole-3-carboxylic acid (benzo[1,3]dioxol-5-yl-methyl) amide], in assay [3] (setting [11]), the IC50 is approximately 15 µM.

As for `COC(=O)c1cc(-c2ccc(Cl)c(C)c2)n(Cc2ccc(C)cc2)n1` [methyl, 5-(4-Chloro-3-methyl-phenyl)-1-(4-methyl-benzyl)-1H-pyrazole-3-carboxylic acid methyl ester], in assay [3] (setting [11]), the IC50 is approximately 9 µM.

Turning to `Cc1ccc(Cn2nc(C(=O)NN3CCCCC3)cc2-c2ccc(Cl)c(C)c2)cc1` [piperidinyl, 5-(4-Chloro-3-methyl-phenyl)-1-(4-methyl-benzyl)-1H-pyrazole-3-carboxylic acid piperidin-1-yl amide], the half-maximal inhibitory concentration (IC50) in assay [3] (setting [11]) is approximately 15 µM.

Consider `CCCCCc1cc(O)c2c(c1)OC(C)(C)[C@@H]1CCC(C)=C[C@@H]21` [Δ^9THC, Δ^9-tetrahydrocannabinol], for which the “Classification CB2” value in assay [6] was “Neutral antagonist”.

Source of the values: patent US20060172019A1 (priority 2003, published 2006).
